One substance from patent US20050148069A1, “IGF-1 instructs multipotent adult CNS neural stem cells to an oligodendroglial lineage” (priority 2003, published 2005) can be followed below.

In the assay the test system is adult hippocampus-derived neural progenitor cells. In words: proliferation by BrdU incorporation. It counts as cell-based, rat. Conditions: 500 ng/ml IGF-I. The method, then:
We next determined whether proliferation of progenitors might contribute to the observed increase in oligodendrocyte differentiation. Bromodeoxyuridine (BrdU) (2.5 μM) was added to parallel cultures for 12 hours at times 0-, 12-, 24-, and 36-h after plating, followed by fixation and quantification of total cell numbers and BrdU+ cells. We counted the progenitor cells (evidenced by a lack of RIP staining) that were labeled with BrdU at each time point. For cells grown in the absence of IGF-I, we observed a progressive decrease in the percentage of cells that were proliferating (BrdU+) during the 48-h experiments (FIG. 3B). […] This initial decrease in proliferation is most likely due to FGF-2 mitogen withdrawal. […]
Cells were fixed with 4% paraformaldehyde, followed by immunocytochemical staining as described (Palmer et al., 1999). […] Quantification of cell phenotypes was with StereoInvestigator (MicroBrightfield Inc.); for each marker, 500-1000 cells were sampled systematically from standardized fields at 40×magnification. For quantification of live/dead cells, images were taken of cultures live-stained with propidum iodide (1 μg/ml; Molecular Probes) and Hoescht 33342 (1 μg/ml; Sigma) at 10×magnification, and cells were counted using Image-Pro (Media Cybernetics). […]
(Dividing cells build labelled thymidine or BrdU into new DNA.)

On to “IGF-I: human recombinant IGF-I (R&D Systems), growth factor polypeptide”, for which the “percentage of RIP− cells that incorporated BrdU” value (12-h BrdU periods up to 48 h) is given as “decreasing trend in the first three time periods”. Under “after 24 hours”, the “RIP+ cells positive for BrdU” value was “significant increase in RIP+ cells positive for BrdU”.
